Laboratory results taken from US20240066045A1, “SEMICARBAZONE-BASED SAPONIN CONJUGATE” (priority 2020, published 2024).
Read-outs that look alike come from different tables or passages of the source.

Assays:
apoB RNA in liver tissue = experiment: In vivo efficacy: apoB RNA in liver tissue (qRT-PCR); design: species or system C57BL/6J mice; details: for reduction of liver apoB RNA compared to vehicle: study A
Protocol: (§1) In Vivo Tolerability and Efficacy of Trivalent GalNAc-Conjugates in a C57BL/6J Model • Dose administration and in-life phase. Per group, 8 C57BL/6J male mice for treatment groups (in study A, 14 mice in vehicle control group), approximately 6-7 weeks at arrival and 8-9 weeks at dosing, were dosed. The compounds, formulated in PBS or PBS alone (vehicle) according to Table A5 and Table A6, were dosed at 5 ml/kg in the tail vain (intravenously, iv), with dose volumes corresponding to the individual bodyweights. Where applicable, trivalent (GalNAc)3-SO1861 (EMCH) was co-administered at 5 ml/kg in the tail vain (iv) right after the trivalent GalNAc-ApoB conjugate. Animals were weighed weekly and clinical observations were performed 2-3 times daily within the first 48 hrs, and at least once daily thereafter until study end. • Sampling of serum, liver, and kidney tissue. […] At the relevant inter-study post-dose timepoints, 3 animals per timepoint per treatment group (6 animals in the vehicle control group in study A) were sacrificed to collect terminal bleeds and collect relevant organs, such as liver and kidney tissues for further analyses. at end of study, the remaining 2 animals (4 in the control group in study A) per group were sacrificed. One half of the liver and one kidney was frozen and used for tissue RNA analysis.
The mRNA was isolated from frozen liver tissue using TRizol® Reagent (Thermo Scientific) according to the manufacturer's instruction. Conversion into cDNA was performed using iScript™ cDNA Synthesis Kit (BioRad). ApoB expression levels and levels of specific liver housekeeping genes were determined using quantitative real-time PCR assays (qRT-PCR) using iTaq™ Universal SYBR® Green Supermix (BioRad) and the Light Cycler 480 (Roche Diagnostics, Rotkreuz, Switzerland) with specific DNA primers, listed in Table A4 (study A) and Table A7 (study B), respectively. Analysis was done by the ΔCt method to determine ApoB expression relative to 2 liver-specific housekeeping control mRNAs. Each analysis reaction was performed in triplicate.

[1] = test system: apoB RNA in primary human hepatocytes; experiment: apoB RNA expression analysis (qRT-PCR) after 72 hr treatment; format: cell-based; details: read-out: IC50 apoB RNA levels
Protocol: RNA from cells was isolated using TRI Reagent® Solution (Thermo Scientific) according to the manufacturer's instruction. Conversion into cDNA was performed using iScript™ cDNA Synthesis Kit (BioRad) using standard protocols. ApoB expression levels and levels of specific hepatocyte housekeeping genes were determined using quantitative real-time PCR assays (qRT-PCR) using iTaq™ Universal SYBR® Green Supermix (BioRad) and the Light Cycler 480 (Roche Diagnostics, Rotkreuz, Switzerland) with specific DNA primers, listed in Table A4. Analysis was done by the ΔCt method to determine ApoB expression relative to 2 hepatocyte-specific housekeeping control mRNAs. Each analysis reaction was performed in triplicate.
Covalent binding of the saponin to the GalNAc/oligonucleotide conjugate via a semicarbazone bond thus results in increased efficacy when relative apoB RNA levels are considered and compared with levels measured in cells which were contacted with a conjugate comprising saponin linked via a hydrazone bond to the GalNAc/oligonucleotide conjugate. Without wishing to be bound by any theory, improved efficacy of the release of free saponin from the conjugate, when the conjugate is transferred into the endosome, is at the basis for the improved potency of the oligonucleotide, as obtained with the conjugate comprising saponin bound via semicarbazone. […]

[2] = test system: serum LDL-cholesterol (LDL-C); experiment: In vivo efficacy: serum LDL-cholesterol; design: species or system C57BL/6J mice
Protocol: as §1
LDL-cholesterol was measured in mouse serum, using an LDL-cholesterol specific two-step AU480 assay kit, respectively, from Beckman Coulter, with a photometric measurement according to the manufacturer's instructions.

[3] = In vivo tolerability: clinical observations, body weight, serum ALT; design: species or system C57BL/6J mice; details: study A; doses and dose regimens of Table A5, iv
Protocol: In Vivo Tolerability and Efficacy of Trivalent GalNAc-Conjugates in a C57BL/6J Model • Dose administration and in-life phase. Per group, 8 C57BL/6J male mice for treatment groups (in study A, 14 mice in vehicle control group), approximately 6-7 weeks at arrival and 8-9 weeks at dosing, were dosed. The compounds, formulated in PBS or PBS alone (vehicle) according to Table A5 and Table A6, were dosed at 5 ml/kg in the tail vain (intravenously, iv), with dose volumes corresponding to the individual bodyweights. Where applicable, trivalent (GalNAc)3-SO1861 (EMCH) was co-administered at 5 ml/kg in the tail vain (iv) right after the trivalent GalNAc-ApoB conjugate. Animals were weighed weekly and clinical observations were performed 2-3 times daily within the first 48 hrs, and at least once daily thereafter until study end. • Sampling of serum, liver, and kidney tissue. […]
Serum alanine transaminase (ALT) levels was measured using an AU480 assay kit from Beckman Coulter (photometric measurements), according to the manufacturer's instructions.

apoB protein in serum = experiment: In vivo efficacy: serum apoB protein (ELISA); design: species or system C57BL/6J mice; details: study B; 2 mg/kg; 72 hrs post-dose
Protocol: as §1, with “[…] […]” for “The compounds, formulated in PBS or PBS alone (vehicle) according to Table A5 and Table A6, were dosed at 5 ml/kg in the tail vain (intravenously, iv), with dose volumes corresponding to the individual bodyweights. Where applicable, trivalent (GalNAc)3-SO1861 (EMCH) was co-administered at 5 ml/kg in the tail vain (iv) right after the trivalent GalNAc-ApoB conjugate.”
ApoB protein levels in mouse serum was determined using an ApoB ELISA (ab230932, Abcam, Cambridge, UK), according to the manufacturer's instruction.

[4] = test system: human red blood cells (RBC); experiment: Haemolysis assay; format: cell-based; details: fresh human red blood cells
Protocol: Red blood cells (RBCs) were isolated from a buffy coat using a Ficoll gradient. The obtained RBC pellet (˜4-5 ml) was washed 2× with 50 ml DPBS (without Ca^2+/Mg^2+, PAN-Biotech GmbH). Cells were pelleted by centrifugation for 10 min, 800×g at RT. RBC were counted and resuspended at 500.000.000 c/ml in DPBS (without Ca^2+/Mg^2+), based on total cell count. SO1861-linker dilutions were prepared in DPBS (with Ca^2+/Mg^2+, PAN-Biotech GmbH), at 1.11× final strength. For positive lysis control a 0.02% Triton-X100 solution was prepared in DPBS^+/+. Of all compound solutions 135 μl was dispensed/well in a 96 well V-bottom plate. To this 15 μl RBC suspension was added and mixed shortly (10 sec—600 rpm). The plate was incubated 30 min at RT, with gentle agitation. Afterwards the plate was spun for 10 min at 800×g to pellet the RBC and 100-120 μl supernatant was transferred to a standard 96 wp. Subsequently, the OD at 405 nm was measured on a Thermo Scientific Multiskan FC plate reader (Thermo Scientific). For quantification the background signal of ‘DPBS^+/+ only’ wells was subtracted from all other wells before the percentage of hemolysis was calculated in comparison to 0.02% Triton-X100, by dividing the background corrected signal of treated wells over the background corrected signal of the 0.02% Triton-X100 wells (×100).

A431 cells [5] = experiment: Cell toxicity (MTS), saponin alone; format: cell-based
Protocol: (§2) Cell viability was determined by an MTS-assay, performed according to the manufacturer's instruction (CellTiter 96® AQueous One Solution Cell Proliferation Assay, Promega). Briefly, the MTS solution was diluted 20× in DMEM without phenol red (PAN-Biotech GmbH) supplemented with 10% FBS (PAN-Biotech GmbH). The cells were washed once with 200 μL PBS per well, after which 100 μL diluted MTS solution was added per well. The plate was incubated for approximately 20-30 minutes at 37° C. Subsequently, the optical density at 492 nm was measured on a Thermo Scientific Multiskan FC plate reader (Thermo Scientific). For quantification the background signal of ‘medium only’ wells was subtracted from all other wells, before the ratio of untreated/treated cells was calculated, by dividing the background corrected signal of untreated wells over the background corrected signal of the treated wells.

HeLa cells [6] = experiment: Cell toxicity (MTS), saponin alone; format: cell-based
Protocol: as §2

A431 cells [7] = experiment: Cell killing assay (MTS): saponin titrated on fixed non-effective concentration of targeted toxin (endosomal escape enhancing activity); format: cell-based
Protocol: as §2

HeLa cells [8] = experiment: as above; format: cell-based; details: for IC50: read-out: IC50 nM (Activity; + 5 pM EGFdianthin), HeLa cells, + 5 pM EGFdianthin
Protocol: as §2

[9] = CMC determination (ANS fluorescence); format: physicochemical
Protocol: The critical micellar concentration (CMC) of saponins derived from Saponaria Officinalis (SO) was determined by the method of DeVendittis et al. (www.sciencedirect.com/science/article/pii/0003269781900063, doi.org/10.1016/0003-2697(81)90006-3, Analytical Biochemistry, Volume 115, Issue 2, August 1981, Pages 278-286) as follows: The emission spectrum of 8-Anilinonaphthalene-1-sulfonic acid (ANS) in either purified water (MQ) or PBS (Dulbecco's PBS+/+) was determined at dry weight concentrations of saponins ranging from 1 to 1400 μM to cover the range below and above the CMC. Above the CMC, the fluorescence yield of ANS increases and the wavelength of maximum emission decreases due to portioning of the fluorescent dye into micelles. Fluorescence yields were recorded on a Fluoroskan Ascent FL (Thermo Scientific) at an excitation wavelength of 355 nm, and an emission wavelength of 460 nm. 6 μg at a concentration of 75.86 μM of ANS were used per sample and measurement.

HSP27 mRNA in A431 cells = experiment: HSP27 gene silencing (HSP27 mRNA expression, qPCR); format: cell-based; details: saponin titrated + 50 nM Trastuzumab-HSP27BNA
Excerpt: RNA from cells was isolated and analysed according to standard protocols (Biorad).

5′-GCattggtatTCA-3′ (GCATTGGTATTCA; listed as DNA, chemistry not fully specified) [ApoB #02 BNA]
reduction of liver apoB RNA compared to vehicle (apoB RNA in liver tissue; 0.1 mg/kg iv, 24 hrs): not noticeably reduced
reduction of liver apoB RNA compared to vehicle (apoB RNA in liver tissue; 1 mg/kg iv, 24 hrs): ~15%
reduction of liver apoB RNA compared to vehicle (apoB RNA in liver tissue; 2 mg/kg iv, 24 hrs): ~21%
reduction of liver apoB RNA compared to vehicle (apoB RNA in liver tissue; 2 mg/kg iv, 72 hrs): 39%
reduction of liver apoB RNA compared to vehicle (apoB RNA in liver tissue; 2 mg/kg iv, 336 hrs): 30%
liver apoB RNA levels, % of vehicle control (apoB RNA in liver tissue; study B, 2 mg/kg, 72 hrs): 53%
IC50 ([1]; relative ApoB #02 BNA concentration, no transfection agent (FIG. 19A)): 400 nM
IC50 ([1]; transfection with RNAi-MAX): 8 nM
reduction of serum LDL-C compared to vehicle ([2]; study A, 2 mg/kg, 72 hrs): ca. 50%
reduction of serum LDL-C compared to vehicle ([2]; study A, 2 mg/kg, 336 hrs): ca. 40%
serum LDL-C levels compared to vehicle ([2]; study A, 0.1, 1, or 2 mg/kg, 24 hrs): not noticeably reduced
serum LDL-C ([2]; study B, 2 mg/kg, 72 hrs post-dose): 2 mg/dL
tolerability (clinical observations) [3]: well tolerated
serum apoB protein (apoB protein in serum): 57 µg/mL

CC(=O)OC1C(C)OC(OC2C(C)OC(OC(=O)[C@]34CCC(C)(C)CC3C3=CCC5[C@@]6(C)CC[C@H](OC7OC(C(=O)O)C(O)C(OC8OCC(O)C(O)C8O)C7OC7OC(CO)C(O)C(O)C7O)[C@@](C)(/C=N/NC(=O)CCCCCN7C(=O)C=CC7=O)C6CC[C@@]5(C)[C@]3(C)C[C@H]4O)C(OC3OC(C)C(OC4OCC(O)C(OC5OC(CO)C(O)C(O)C5O)C4O)C(O)C3O)C2O)C(O)C1OC1OCC(O)C(O)C1O (some centres unmarked) [SO1861-EMCH]
IC50 [4]: > 500000 nM
IC50 (A431 cells [5]): > 30000 nM
IC50 (HeLa cells [6]): > 100000 nM
IC50 (A431 cells [7]; + 50 pM Trastuzumab-saporin, read-out: IC50 cell killing): 2500 nM
IC50 (A431 cells [7]; read-out: IC50 nM (Activity; + 5 pM EGFdianthin), + 5 pM EGFdianthin): 3000 nM
IC50 (HeLa cells [8]): 4000 nM

CC(=O)OC1C(C)OC(OC2C(C)OC(OC(=O)[C@]34CCC(C)(C)CC3C3=CCC5[C@@]6(C)CC[C@H](OC7OC(C(=O)O)C(O)C(OC8OCC(O)C(O)C8O)C7OC7OC(CO)C(O)C(O)C7O)[C@@](C)(C=NNC(=O)N7CCN(C(=O)CCCCCN8C(=O)C=CC8=O)CC7)C6CC[C@@]5(C)[C@]3(C)C[C@H]4O)C(OC3OC(C)C(OC4OCC(O)C(OC5OC(CO)C(O)C(O)C5O)C4O)C(O)C3O)C2O)C(O)C1OC1OCC(O)C(O)C1O (some centres unmarked) [SO1861-SC-Mal]
IC50 [4]: 250000 nM
CMC ([9]; listed as SO1861-Semicarbazone Mal): >800 µM
CMC ([9]; listed as SO1861-semicarbazone Mal): >800 µM
IC50 (HeLa cells [6]): > 100000 nM
IC50 (HSP27 mRNA in A431 cells): 600 nM

CC(=O)O[C@H]1[C@H](O[C@@H]2OC[C@@H](O)[C@H](O)[C@H]2O)[C@@H](O)[C@H](O[C@@H]2[C@H](O)[C@@H](O[C@@H]3O[C@@H](C)[C@H](O[C@@H]4OC[C@@H](O)[C@H](O[C@@H]5O[C@H](CO)[C@@H](O)[C@H](O)[C@H]5O)[C@H]4O)[C@@H](O)[C@H]3O)[C@H](OC(=O)[C@]34CCC(C)(C)C[C@H]3C3=CC[C@@H]5[C@@]6(C)CC[C@H](O[C@@H]7O[C@H](C(=O)O)[C@@H](O)[C@H](O[C@@H]8OC[C@@H](O)[C@H](O)[C@H]8O)[C@H]7O[C@@H]7O[C@H](CO)[C@H](O)[C@H](O)[C@H]7O)[C@@](C)(C=O)[C@@H]6CC[C@@]5(C)[C@]3(C)C[C@H]4O)O[C@@H]2C)O[C@@H]1C [SO1861]
IC50 ([4]; Erythrocyte): 10000 nM
CMC [9]: 120 µM
IC50 (A431 cells [5]; Homo sapiens, A-431): 2000 nM
IC50 (HeLa cells [6]; Homo sapiens): 9000 nM
IC50 (A431 cells [7]; Homo sapiens, A-431, read-out: IC50 nM (Activity; + 5 pM EGFdianthin), + 5 pM EGFdianthin): 300 nM
activity compared with the SO1861 derivatives (HeLa cells [8]; HeLa and A431, + 5 pM EGFdianthin or 10 pM cetuximab-saporin or 50 pM Trastuzumab-saporin): strongest activity
IC50 (HeLa cells [8]; Homo sapiens): 500 nM
